Laboratory results: patent US20220280423A1, “GLYMPHATIC DELIVERY BY MANIPULATING PLASMA OSMOLARITY” (University of Rochester, priority 2018, published 2022)
“Also recorded” adds a separate entry of the source. Marks after values point to notes of the source that are not given here.

Tests used:
[1] = Head-focused SPECT/CT of ^111In—AuNP or ^111In-LA-DOTA infused to the cisterna magna, 0-3 h; assay type: in vivo, Sprague-Dawley rats; design: AUC0-3 h Striatum / AUC0-3 h Thalamus / AUC0-3 h Intracranial / AUC0-3 h Brain / AUC0-3 h Cervical spine / AUC0-3 h Nasal turbinates / AUC0-3 h Pharyngeal lymph vessel / AUC0-3 h Deep lymph nodes: concentration or dose not given beside the values; details: VEH (isotonic saline i.p.)
Protocol: Cisterna magna cannulation was performed as previously described with minor modifications (Xavier et al. J Vis Exp e57378-e57378 (2018)). Rats were anesthetized with a mixture of ketamine (100 mg/kg) and dexmedetomidine (0.5 mg/kg), administered subcutaneously in a volume of 2 ml/kg. After verification of loss of response to toe pinch, animals were placed in a stereotaxic frame and the neck slightly flexed (30°). The atlanto-occipital membrane overlying the cisterna magna was surgically exposed and a 30 G short-bevelled dental needle connected to PE10 tubing was carefully inserted into the intrathecal space. The catheter was fixed to the dura with cyanoacrylate glue and dental cement.
For post-operative analgesia, rats that were imaged for 24 hours received 5 mg/kg carprofen (Rimadyl® vet, 50 mg/mL, Orion Pharma, Espoo, Finland) s.c. at the beginning of surgery. Temperature was monitored and normothermia was maintained with a heating pad. […] The total volume of 32 μL was infused over 20 minutes. Five minutes before the AuNP infusion started, rats received either hypertonic saline (1 M, 20 mL/kg i.p.) or isotonic saline (0.154 M, 20 mL/kg i.p.). In the MRI experiments, all rats received a hypertonic saline injection, and the infusion rate of Gd-labelled nanoparticles was the same, but the total infusion volume was 80 μL.
Radioactivity of the infused dose was measured with VIK-202 dose calibrator (Comecer, Joure, The Netherlands). The Vector4CT (MILabs, Utrecht, Netherlands) system was used for SPECT/CT imaging. SPECT images were acquired with a high energy ultra high resolution rat 1.8 mm pinhole collimator (HE-UHR-RM 1.8 mm ph). Acquired images were reconstructed using Similarity-Regulated Ordered Subsets […] (SROSEM) with a voxel size of 0.6 mm and 5 iterations. Both decays at the 111-In photopeaks (±20%) and background at 20% outside each photopeak window) were individually used for the reconstruction. Two highly accurate energy dependent system matrices for iterative image reconstruction (SROSEM' Vaissier, P. E. B., Beekman, F. J. & Goorden, M. C. Similarity-regulation of OS-EM for accelerated SPECT reconstruction. Physics in Medicine and Biology 61, 4300-4315 (2016)) were used to minimize artifacts in ^111In imaging with high local uptake and no background activity in surrounding structures. In each matrix the effects of energy dependent pinhole penetration (calculated using a ray tracer, Goorden et al. Physics in Medicine and Biology 61, 3712-3733 (2016)) and intrinsic detector resolution with depth of interaction (DOI) effects in the crystal were modelled. The DOI effect was calculated using GATE Monte Carlo simulations (Jan, S. et al. Physics in Medicine and Biology 49, 4543-4561 (2004)) that was stored in tables and used in the raytracer. Matrices were generated for 171 keV and 245 keV photons and were used during the reconstruction from projections of the corresponding energy peaks. The resulting SPECT images were then added and averaged to obtain the final ^111In image. Head and full-body CT images were acquired directly after the SPECT scans in the same imaging session. SPECT data were attenuation corrected, decay corrected to the half-life of ^111In, and corrected for injected activity, with each voxel representing the percentage of the injected dose per cm^3 (%ID/cm^3).
Head and full-body CT images from each imaging session were nonlinearly registered using Advanced Normalization Tools (ANTs) to the appropriate population-based CT template (described below). Regions of interest (ROIs) were then either drawn manually in on individual CT images, manually in the template space, or were computed automatically in the case of the delineation between CSF and brain described below. Manual ROIs were drawn using ITK-SNAP software. Spherical ROIs (Ø 1.4 mm) for striatum and thalamus were placed using the in-house MRI template as reference. […]

[2] = Stability of ^111In-LA-DOTA complex in CSF or brain homogenate (radio-TLC); assay type: in vitro ADME, rat; details: CSF and BH, 37° C., over 48 hours
Protocol: To obtain CSF and brain homogenate for assessing AuNP stability, rats were anesthetized with subcutaneous ketamine (100 mg/kg) and dexmedetomidine (0.5 mg/kg) and fixed to a stereotaxic frame after verification of loss of response to painful stimuli. The cisterna magna was exposed and CSF was carefully drawn using a syringe and a 30 G needle. The rats were euthanized, the brains were quickly dissected and cut in four quarters. Each quarter was mixed in 5 mL phosphate-buffered saline (PBS) using a homogenizer. Both the CSF and brain homogenates were stored at —80° C. To allow UV-VIS characterization at low radioactivity level, radiolabeled AuNPs were mixed with non-radiolabeled, PEG-coated AuNPs from the same batch (see section 2.2). The gold concentration was the same in both AuNPs samples (0.373 mg/mL). […]
Free ^111In-LA-DOTA: The following mixtures were prepared and analyzed: 1) CSF (30 μL)+^111In-LA-DOTA complex solution (30 μL), 2) Brain homogenate (15 μL)+PBS (15 μL)+^111In-LA-DOTA complex solution (30 μL). […] The mixtures were incubated at 37° C. and samples were analyzed by radio-TLC at 0, 4, 24, and 48 hours. […]

AUC0-3 h Brain [1]: 84.2 ± 13.6^c % ID · h
AUC0-3 h CSF [1]: 40.2 ± 9.4 % ID · h
AUC0-3 h Cervical spine [1]: 126.5 ± 30.32 % ID/cm^3 · h
AUC0-3 h Deep lymph nodes [1]: 0.1 ± 0.1^f % ID/cm^3 · h
AUC0-3 h Nasal turbinates [1]: 2.4 ± 1.4^b % ID/cm^3 · h
AUC0-3 h Pharyngeal lymph vessel [1]: 0.5 ± 0.1^d % ID/cm^3 · h
AUC0-3 h Striatum [1]: 4.5 ± 1.5 % ID/cm^3 · h
AUC0-3 h Thalamus [1]: 7.5 ± 4.2^k % ID/cm^3 · h
Peak tracer mass Brain [1]: 39.6 ± 4.3 % ID
Peak tracer mass CSF [1]: 27.3 ± 3.5 % ID
Peak tracer mass Intracranial [1]: 65.4 ± 6.0 % ID
Peak tracer mass Striatum [1]: 4.3 ± 1.6 % ID/cm^3
Peak tracer mass Thalamus [1]: 8.3 ± 3.1^n % ID/cm^3
Residual after 3 h Brain [1]: 20.6 ± 5.0^g % ID
Residual after 3 h CSF [1]: 4.9 ± 1.3 % ID
Residual after 3 h Intracranial [1]: 25.5 ± 6.2 % ID
AUC0-3 h Intracranial ([1]; intracisternal infusion, rats): 124.4 ± 22.5 % ID · h
Compound: O=C(O)CN1CCN(CC(=O)O)CCN(CC(=O)NCCNC(=O)CCCCC2CCSS2)CCN(CC(=O)O)CC1 (stereo not drawn) [^111In-LA-DOTA, 2,2′,2″-(10-(2-((2-(5-(1,2-dithiolan-3-yl)pentanamido)ethyl)amino)-2-oxoethyl)-1,4,7,10-tetraazacyclododecane-1,4,7-triyl)triacetic acid, metal not drawn]
stability of the chelate (release of ^111In from the chelator) [2]: stable; also recorded: did not result in appreciable destabilization
